Reference: ChEMBL document CHEMBL1201862, “PubChem BioAssay data set” (2004)
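Results reflect a 48-hour exposure of cells in 96-well plates to compound at five concentrations. GI50: concentration for 50% inhibition of growth.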 Active and inactive are the calls of the source. No stated cut-off is given here; in the data, active = GI50 up to about 1.1 µM and inactive = higher.

Tests used:
Test in all cases: inhibition of tumour cell growth, NCI panel, 48 h
786-0 = tested on: 786-0
A498 = tested on: A498
A549 = tested on: A549
COLO 205 = tested on: COLO 205
HT-29 = tested on: HT-29
Hs-578T = tested on: Hs-578T
KM12 = tested on: KM12
LOX IMVI = tested on: LOX IMVI
NCI-H226 = tested on: NCI-H226
NCI-H23 = tested on: NCI-H23
NCI-H460 = tested on: NCI-H460
OVCAR-8 = tested on: OVCAR-8
RPMI-8226 = tested on: RPMI-8226
SF-268 = tested on: SF-268
SK-MEL-28 = tested on: SK-MEL-28
SK-MEL-5 = tested on: SK-MEL-5
SK-OV-3 = tested on: SK-OV-3
SNB-75 = tested on: SNB-75
TK-10 = tested on: TK-10
UACC-257 = tested on: UACC-257

Measured: GI50

N#Cc1c(Cl)cc(C#N)n2c1nc1ccccc12
inactive: 786-0 2.59 µM | A498 24.5 µM | A549 15 µM | COLO 205 4.4 µM | HT-29 6.87 µM | Hs-578T 25.8 µM | KM12 6.98 µM | LOX IMVI 2.5 µM | NCI-H226 33.7 µM | NCI-H23 13.2 µM | NCI-H460 14.9 µM | OVCAR-8 5.92 µM | RPMI-8226 4.14 µM | SF-268 5.6 µM | SK-MEL-28 13.3 µM | SK-MEL-5 15.5 µM | SK-OV-3 21.9 µM | SNB-75 19.2 µM | TK-10 13.2 µM | UACC-257 14.9 µM

CC(=O)NC(CCC(=O)C=[N+]=[N-])C(=O)O (stereo not given)
inactive: 786-0 > 100 µM | A498 > 100 µM | A549 > 100 µM | COLO 205 > 100 µM | HT-29 > 100 µM | Hs-578T > 100 µM | KM12 > 100 µM | LOX IMVI > 100 µM | NCI-H226 > 100 µM | NCI-H23 > 100 µM | NCI-H460 > 100 µM | OVCAR-8 > 100 µM | RPMI-8226 > 100 µM | SF-268 > 100 µM | SK-MEL-28 > 100 µM | SK-MEL-5 > 100 µM | SK-OV-3 > 100 µM | SNB-75 > 100 µM | TK-10 > 100 µM | UACC-257 > 100 µM

C=C1C(=O)C=C2C=C3C(=O)C(C)(C)C[C@]3(O)C12C (stereo not given in full)
inactive: 786-0 1.81 µM | A498 12.8 µM | A549 20 µM | COLO 205 1.5 µM | HT-29 3.27 µM | Hs-578T 8.22 µM | KM12 16.2 µM | LOX IMVI 5.14 µM | NCI-H226 22.1 µM | NCI-H23 4.81 µM | NCI-H460 18.9 µM | OVCAR-8 8.57 µM | RPMI-8226 1.21 µM | SF-268 5.65 µM | SK-MEL-28 2.52 µM | SK-MEL-5 6.62 µM | SK-OV-3 19.3 µM | SNB-75 14.2 µM | TK-10 1.84 µM | UACC-257 2.93 µM

COC(=O)/N=[N+](\[O-])C(c1ccccc1)c1ccccc1
inactive: 786-0 > 100 µM | A498 > 100 µM | A549 33.2 µM | COLO 205 76.2 µM | HT-29 > 100 µM | Hs-578T > 100 µM | KM12 > 100 µM | LOX IMVI 69 µM | NCI-H226 38.6 µM | NCI-H23 29.1 µM | NCI-H460 > 100 µM | OVCAR-8 > 100 µM | RPMI-8226 38.5 µM | SF-268 > 100 µM | SK-MEL-28 > 100 µM | SK-MEL-5 41.9 µM | SK-OV-3 > 100 µM | SNB-75 82.4 µM | TK-10 > 100 µM | UACC-257 28.4 µM

COc1ccc(C(=O)c2sc(Nc3ccc(Cl)cc3)nc2N)cc1
inactive: 786-0 7.8 µM | A498 17 µM | A549 6.15 µM | COLO 205 > 21.2 µM | HT-29 4.43 µM | Hs-578T 11.2 µM | KM12 4.48 µM | LOX IMVI 9.42 µM | NCI-H226 29.6 µM | NCI-H23 13.6 µM | NCI-H460 4.31 µM | OVCAR-8 25.9 µM | RPMI-8226 4.16 µM | SF-268 8.15 µM | SK-MEL-28 29.4 µM | SK-MEL-5 18.3 µM | SK-OV-3 6.35 µM | SNB-75 2.79 µM | TK-10 10.1 µM | UACC-257 11.9 µM
